Where a name gives a salt, the structure may show the parent alone.

The test system of the first assay is HMOX1. As to the kind of experiment: HMOX1 Protein Assay (immunostaining of HO-1 in NHLF cells, GE InCell 1000). It is filed as cell-based. The following applies: Homo sapiens, fold change above DMSO treated cells, 3 μM compound (asterisk), 16 h. An outline of the steps: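 Fold induction of HO-1 over vehicle, normally at 5 μM compound (asterisk marks 3 μM), in 0.8% DMSO medium. Normal human lung fibroblasts were treated 16 h, then paraformaldehyde-fixed, anti-HO-1/Alexa 488 stained with Hoechst, and read by high-content imaging.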
With `Cn1c(Nc2nc3ccc(Cl)cc3s2)nc2cc(C(=O)NC[C@H]3CC[C@H](O)CC3)ccc21` [Example 233, 2-(6-Chloro-benzothiazol-2-ylamino)-1-methyl-1H-benzoimidazole-5-carboxylic acid (trans-4-hydroxy-cyclohexylmethyl)-amide], the fold induction (usually the signal under treatment as a multiple of the control signal) at 3 µM is 28.

As for `CN(C)CCCNC(=O)c1ccc2c(c1)nc(Nc1nc3ccc(OC(F)(F)F)cc3s1)n2C` [Example 348, 1-Methyl-2-(6-trifluoromethoxy-benzothiazol-2-ylamino)-1H-benzoimidazole-5-carboxylic acid (3-dimethylamino-propyl)-amide], the fold induction at 3 µM stood at 22. Consider `Cn1c(Nc2nc3ccc(Cl)cc3s2)nc2cc(C(=O)NCCN3CCNCC3)ccc21` [Example 339, 2-(6-Chloro-benzothiazol-2-ylamino)-1-methyl-1H-benzoimidazole-5-carboxylic acid (2-piperazin-1-yl-ethyl)-amide hydrochloride], for which the fold induction at 3 µM stood at 10.6.

The molecule `C[C@H](O)CNC(=O)c1ccc2c(c1)nc(Nc1nc3ccc(Cl)cc3s1)n2C` [Example 204, 2-(6-Chloro-benzothiazol-2-ylamino)-1-methyl-1H-benzoimidazole-5-carboxylic acid ((S)-2-hydroxy-propyl)-amide] returned a fold induction at 3 µM of 19.3. On the same count and under the same terms, to `Cn1c(Nc2nc3ccc(Cl)cc3s2)nc2cc(C(=O)NCCCN3CCOCC3)ccc21` [Example 359, 2-(6-Chloro-benzothiazol-2-ylamino)-1-methyl-1H-benzoimidazole-5-carboxylic acid (3-morpholin-4-yl-propyl)-amide] belongs 17.4.

Staying with this assay, now noted: Homo sapiens, fold change above DMSO treated cells, 5 μM compound, 16 h.
In turn, `COCCn1c(Nc2nc3ccc(Cl)cc3s2)nc2cc(C(=O)NCCN3CCNC(=O)C3)ccc21` [Example 332, 2-(6-Chloro-benzothiazol-2-ylamino)-1-(2-methoxy-ethyl)-1H-benzoimidazole-5-carboxylic acid [2-(3-oxo-piperazin-1-yl)-ethyl]-amide] registered a fold induction at 5 µM of 55.9. For `Cn1c(Nc2nc3ccc(Cl)cc3s2)nc2cc(C(=O)NCC(=O)NC3CCOC3)ccc21` (centres unmarked) [Example 384, 2-(6-Chloro-benzothiazol-2-ylamino)-1-methyl-1H-benzoimidazole-5-carboxylic acid [(tetrahydro-furan-3-ylcarbamoyl)-methyl]-amide], the fold induction at 5 µM was 26.

`CN(C)CC(=O)N1CCC[C@H](NC(=O)c2ccc3c(c2)nc(Nc2nc4ccc(Cl)cc4s2)n3C)C1` [Example 312, 2-(6-Chloro-benzothiazol-2-ylamino)-1-methyl-1H-benzoimidazole-5-carboxylic acid [(S)-1-(2-dimethylamino-acetyl)-piperidin-3-yl]-amide] yielded a fold induction at 5 µM of 68.8.

For `CCn1c(Nc2nc3ccc(C(F)(F)F)cc3s2)nc2cc(C(=O)NCC(=O)N(C)C)ccc21` [Example 187, 1-Ethyl-2-(6-trifluoromethyl-benzothiazol-2-ylamino)-1H-benzoimidazole-5-carboxylic acid dimethylcarbamoylmethyl-amide], the fold induction at 5 µM was 18.4. The same measure, in the same setting: the value for `CCOCCNC(=O)c1ccc2c(c1)nc(Nc1nc3ccc(OC(F)(F)F)cc3s1)n2CCF` [Example 172, 1-(2-Fluoro-ethyl)-2-(6-trifluoromethoxy-benzothiazol-2-ylamino)-1H-benzoimidazole-5-carboxylic acid (2-ethoxy-ethyl)-amide] was 21.4; that for `Cn1c(Nc2nc3ccc(OC(F)(F)F)cc3s2)nc2cc(C(=O)NCCOCCCF)ccc21` [Example 247, 1-Methyl-2-(6-trifluoromethoxy-benzothiazol-2-ylamino)-1H-benzoimidazole-5-carboxylic acid [2-(3-fluoro-propoxy)-ethyl]-amide] was 28.3. On the same count and under the same terms, to `Cn1c(Nc2nc3ccc(OC(F)(F)F)cc3s2)nc2cc(C(=O)NCC(=O)N3CCCCC3CO)ccc21` (centres unmarked) [Example 439, 1-Methyl-2-(6-trifluoromethoxy-benzothiazol-2-ylamino)-1H-benzoimidazole-5-carboxylic acid [2-(2-hydroxymethyl-piperidin-1-yl)-2-oxo-ethyl]-amide] belongs 84.2.

`Cn1c(Nc2nc3ccc(OC(F)(F)F)cc3s2)nc2cc(C(=O)NC(C)(C)C(=O)O)ccc21` [Example 148, 2-Methyl-2-{[1-methyl-2-(6-trifluoromethoxy-benzothiazol-2-ylamino)-1H-benzimidazole-5-carbonyl]-amino}-propionic acid] gave a fold induction at 5 µM of 12. Same read-out and setting: the value for `CN(C)C(=O)[C@H]1CC[C@H](NC(=O)c2ccc3c(c2)nc(Nc2nc4ccc(Cl)cc4s2)n3C)CC1` [Example 379, 2-(6-Chloro-benzothiazol-2-ylamino)-1-methyl-1H-benzoimidazole-5-carboxylic acid (4-trans-dimethylcarbamoyl-cyclohexyl)-amide] was 21.7; that for `CN(CCO)C(=O)CNC(=O)c1ccc2c(c1)nc(Nc1nc3ccc(Cl)cc3s1)n2C` [Example 391, 2-(6-Chloro-benzothiazol-2-ylamino)-1-methyl-1H-benzoimidazole-5-carboxylic acid {[(2-hydroxy-ethyl)-methyl-carbamoyl]-methyl}-amide] was 38.6. On the same count and under the same terms, to `Cn1c(Nc2nc3ccc(OC(F)(F)F)cc3s2)nc2ccc(CC(N)=O)cc21` [Example 202, 2-[1-Methyl-2-(6-trifluoromethoxy-benzothiazol-2-ylamino)-1H-benzoimidazol-6-yl]-acetamide] belongs 15.6; to `CN1CCN(C(=O)CNC(=O)c2ccc3c(c2)nc(Nc2nc4ccc(OC(F)(F)F)cc4s2)n3C)CC1` [Example 137, 1-Methyl-2-(6-trifluoromethoxy-benzothiazol-2-ylamino)-1H-benzimidazole-5-carboxylic acid [2-(4-methyl-piperazin-1-yl)-2-oxo-ethyl]-amide], 6; to `Cn1c(Nc2nc3ccc(Cl)cc3s2)nc2cc(C(=O)NCCO)ccc21` [Example 30, 2-(6-Chloro-benzothiazol-2-ylamino)-1-methyl-1H-benzoimidazole-5-carboxylic acid (2-hydroxy-ethyl)-amide], 21.4. Same read-out and setting: to `Cn1c(Nc2nc3ccc(OC(F)(F)F)cc3s2)nc2cc(C(=O)NCCCCCO)ccc21` [Example 226, 1-Methyl-2-(6-trifluoromethoxy-benzothiazol-2-ylamino)-1H-benzoimidazole-5-carboxylic acid (5-hydroxy-pentyl)-amide] belongs 23.3; to `CN(C)C(=O)CNC(=O)c1ccc2c(c1)nc(Nc1nc3ccc(OC(F)(F)F)cc3s1)n2C` [Example 80, 1-Methyl-2-(6-trifluoromethoxy-benzothiazol-2-ylamino)-1H-benzoimidazole-5-carboxylic acid dimethylcarbamoylmethyl-amide], 23.2. Turning to `COC(=O)c1ccc2c(c1)nc(Nc1nc3ccc(F)cc3s1)n2C` [Example 112, 2-(6-Fluoro-benzothiazol-2-ylamino)-1-methyl-1H-benzoimidazole-5-carboxylic acid methyl ester], the fold induction at 5 µM is 17.5.

`COC(=O)c1ccc2c(c1)nc(Nc1nc3ccc(C(F)(F)F)cc3s1)n2C` [Example 23, 1-Methyl-2-(6-trifluoromethyl-benzothiazol-2-ylamino)-1H-benzoimidazole-5-carboxylic acid methyl ester] registered a fold induction at 5 µM of 4.11. The same measure, in the same setting: to `Cn1c(Nc2nc3ccc(OC(F)(F)F)cc3s2)nc2cc(C(=O)NCC3CC3)ccc21` [Example 5, 1-Methyl-2-(6-trifluoromethoxy-benzothiazol-2-ylamino)-1H-benzoimidazole-5-carboxylic acid cyclopropylmethyl-amide] belongs 8.33; to `CN[C@@H]1CCN(C(=O)CNC(=O)c2ccc3c(c2)nc(Nc2nc4ccc(OC(F)(F)F)cc4s2)n3C)C1` [Example 413, 1-Methyl-2-(6-trifluoromethoxy-benzothiazol-2-ylamino)-1H-benzoimidazole-5-carboxylic acid [2-((R)-3-methylamino-pyrrolidin-1-yl)-2-oxo-ethyl]-amide hydrochloride], 31.8. In turn, `COCCNC(=O)c1ccc2c(c1)nc(Nc1nc3cc(OC(F)(F)F)ccc3s1)n2C` [Example 116, 1-Methyl-2-(5-trifluoromethoxy-benzothiazol-2-ylamino)-1H-benzimidazole-5-carboxylic acid (2-methoxy-ethyl)-amide] yielded a fold induction at 5 µM of 22.3. The same measure, in the same setting: to `Cn1c(Nc2nc3ccc(OC(F)(F)F)cc3s2)nc2ccc(-c3nc[nH]n3)cc21` [Example 197, [1-Methyl-6-(1H-1,2,4-triazol-3-yl)-1H-benzimidazol-2-yl]-(6-trifluoromethoxy-benzothiazol-2-yl)-amine] belongs 18; to `CN(C)C(=O)[C@H](CO)NC(=O)c1ccc2c(c1)nc(Nc1nc3ccc(OC(F)(F)F)cc3s1)n2C` [Example 368, 1-Methyl-2-(6-trifluoromethoxy-benzothiazol-2-ylamino)-1H-benzoimidazole-5-carboxylic acid ((S)-1-dimethylcarbamoyl-2-hydroxy-ethyl)-amide], 48. In turn, `CN(C)CC(=O)N1CCC[C@@H](NC(=O)c2ccc3c(c2)nc(Nc2nc4ccc(Cl)cc4s2)n3C)C1` [Example 311, 2-(6-Chloro-benzothiazol-2-ylamino)-1-methyl-1H-benzoimidazole-5-carboxylic acid [(R)-1-(2-dimethylamino-acetyl)-piperidin-3-yl]-amide] had a fold induction at 5 µM of 77.3. On the same count and under the same terms, to `Cn1c(Nc2nc3ccc(Cl)cc3s2)nc2cc(C(=O)NCC(=O)N3CCNCC3)ccc21` [Example 425, 2-(6-Chloro-benzothiazol-2-ylamino)-1-methyl-1H-benzoimidazole-5-carboxylic acid (2-oxo-2-piperazin-1-yl-ethyl)-amide hydrochloride] belongs 20.3.

The values are drawn from patent publication US8759535B2, “Substituted fused imidazole derivatives, pharmaceutical compositions, and methods of use thereof” (High Point Pharmaceuticals, LLC, priority 2010, dated 2014).
